Key:
Test in all cases: KINOMEscan competition binding
Settings in all cases: compound 10.0 µM
EPHB3 (human) = EPHB3 (human) (UniProt P54753)
SRPK1 (human) = SRPK1 (human) (UniProt Q96SB4)
AKT3 (human) = AKT3 (human) (UniProt Q9Y243)
CDK17 (human) = CDK17 (human) (UniProt Q00537)
FES (human) = FES (human) (UniProt P07332)
NEK1 (human) = NEK1 (human) (UniProt Q96PY6)
ANKK1 (human) = ANKK1 (human) (UniProt Q8NFD2)
CAMK2D (human) = CAMK2D (human) (UniProt Q13557)
LATS2 (human) = LATS2 (human) (UniProt Q9NRM7)
MAP3K11 (human) = MAP3K11 (human) (UniProt Q16584)
MAPK1 (human) = MAPK1 (human) (UniProt P28482)
PRKCE (human) = PRKCE (human) (UniProt Q02156)
CLK1 (human) = CLK1 (human) (UniProt P49759)
MST1R (human) = MST1R (human) (UniProt Q04912)
MARK1 (human) = MARK1 (human) (UniProt Q9P0L2)
[1] = tested on: EIF2AK4 KD2 (human), Q9P2K8 [S808G]
SGK110 (human) = SGK110 (human) (UniProt P0C264)
EPHB2 (human) = EPHB2 (human) (UniProt P29323)
BMPR1B (human) = BMPR1B (human) (UniProt O00238)
STK16 (human) = STK16 (human) (UniProt O75716)
NEK2 (human) = NEK2 (human) (UniProt P51955)
PRKCD (human) = PRKCD (human) (UniProt Q05655)
CSNK1G1 (human) = CSNK1G1 (human) (UniProt Q9HCP0)
CAMKK2 (human) = CAMKK2 (human) (UniProt Q96RR4)
RPS6KA1 KD1 (human) = RPS6KA1 KD1 (human) (UniProt Q15418)
PAK2 (human) = PAK2 (human) (UniProt Q13177)
STK17A (human) = STK17A (human) (UniProt Q9UEE5)
AAK1 (human) = AAK1 (human) (UniProt Q2M2I8)
STK32C (human) = STK32C (human) (UniProt Q86UX6)
LATS1 (human) = LATS1 (human) (UniProt O95835)
PKN1 (human) = PKN1 (human) (UniProt Q16512)
[2] = target: JAK3 JH1 catalytic (human) (UniProt P52333)
[3] = target: JAK1 JH2 pseudokinase (human) (UniProt P23458)
FLT4 (human) = FLT4 (human) (UniProt P35916)
CHEK1 (human) = CHEK1 (human) (UniProt O14757)
CDC2L2 (human) = CDC2L2 (human) (UniProt Q9UQ88)
DMPK (human) = DMPK (human) (UniProt Q09013)
[4] = tested on: FLT3 (human), P36888 [ITD]
STK17B (human) = STK17B (human) (UniProt O94768)
BLK (human) = BLK (human) (UniProt P51451)

Sequence of STK17A (human) (Q9UEE5 whole entry, looked up): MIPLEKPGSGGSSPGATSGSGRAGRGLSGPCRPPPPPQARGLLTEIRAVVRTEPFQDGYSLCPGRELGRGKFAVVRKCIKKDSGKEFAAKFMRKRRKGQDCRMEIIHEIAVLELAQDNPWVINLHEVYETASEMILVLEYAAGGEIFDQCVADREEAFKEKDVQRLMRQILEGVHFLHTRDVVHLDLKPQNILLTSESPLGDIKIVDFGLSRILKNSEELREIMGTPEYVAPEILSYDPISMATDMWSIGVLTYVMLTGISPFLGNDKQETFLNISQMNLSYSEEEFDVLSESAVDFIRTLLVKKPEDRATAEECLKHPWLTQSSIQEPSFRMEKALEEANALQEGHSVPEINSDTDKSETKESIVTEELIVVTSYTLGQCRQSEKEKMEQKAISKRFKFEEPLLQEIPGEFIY
Sequence of PAK2 (human) (Q13177 whole entry, looked up): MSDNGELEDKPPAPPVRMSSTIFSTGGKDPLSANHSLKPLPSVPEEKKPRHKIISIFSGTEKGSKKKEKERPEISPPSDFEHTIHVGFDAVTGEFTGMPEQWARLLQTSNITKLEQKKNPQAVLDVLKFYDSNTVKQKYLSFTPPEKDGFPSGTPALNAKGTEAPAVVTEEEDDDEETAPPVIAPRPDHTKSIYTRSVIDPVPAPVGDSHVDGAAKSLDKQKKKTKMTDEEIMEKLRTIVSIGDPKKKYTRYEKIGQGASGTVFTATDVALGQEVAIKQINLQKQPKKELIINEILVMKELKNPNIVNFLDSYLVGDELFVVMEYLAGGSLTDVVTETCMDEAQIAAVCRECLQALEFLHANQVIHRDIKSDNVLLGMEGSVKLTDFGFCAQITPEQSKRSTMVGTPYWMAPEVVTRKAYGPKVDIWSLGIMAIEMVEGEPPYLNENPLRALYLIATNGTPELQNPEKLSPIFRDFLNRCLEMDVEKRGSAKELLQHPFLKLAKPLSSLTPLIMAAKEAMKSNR
Sequence of SGK110 (human) (P0C264 whole entry, looked up): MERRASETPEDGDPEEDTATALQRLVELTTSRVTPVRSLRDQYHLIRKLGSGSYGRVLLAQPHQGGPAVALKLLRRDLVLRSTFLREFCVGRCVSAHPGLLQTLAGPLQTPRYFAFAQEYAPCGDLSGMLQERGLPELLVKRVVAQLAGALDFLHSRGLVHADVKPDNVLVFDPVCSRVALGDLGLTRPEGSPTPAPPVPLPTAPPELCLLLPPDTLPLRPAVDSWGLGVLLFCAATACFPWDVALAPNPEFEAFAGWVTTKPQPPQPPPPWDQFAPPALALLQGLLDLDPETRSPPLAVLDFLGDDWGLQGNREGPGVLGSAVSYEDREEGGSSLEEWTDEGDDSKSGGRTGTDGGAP
Sequence of LATS1 (human) (O95835 whole entry, looked up): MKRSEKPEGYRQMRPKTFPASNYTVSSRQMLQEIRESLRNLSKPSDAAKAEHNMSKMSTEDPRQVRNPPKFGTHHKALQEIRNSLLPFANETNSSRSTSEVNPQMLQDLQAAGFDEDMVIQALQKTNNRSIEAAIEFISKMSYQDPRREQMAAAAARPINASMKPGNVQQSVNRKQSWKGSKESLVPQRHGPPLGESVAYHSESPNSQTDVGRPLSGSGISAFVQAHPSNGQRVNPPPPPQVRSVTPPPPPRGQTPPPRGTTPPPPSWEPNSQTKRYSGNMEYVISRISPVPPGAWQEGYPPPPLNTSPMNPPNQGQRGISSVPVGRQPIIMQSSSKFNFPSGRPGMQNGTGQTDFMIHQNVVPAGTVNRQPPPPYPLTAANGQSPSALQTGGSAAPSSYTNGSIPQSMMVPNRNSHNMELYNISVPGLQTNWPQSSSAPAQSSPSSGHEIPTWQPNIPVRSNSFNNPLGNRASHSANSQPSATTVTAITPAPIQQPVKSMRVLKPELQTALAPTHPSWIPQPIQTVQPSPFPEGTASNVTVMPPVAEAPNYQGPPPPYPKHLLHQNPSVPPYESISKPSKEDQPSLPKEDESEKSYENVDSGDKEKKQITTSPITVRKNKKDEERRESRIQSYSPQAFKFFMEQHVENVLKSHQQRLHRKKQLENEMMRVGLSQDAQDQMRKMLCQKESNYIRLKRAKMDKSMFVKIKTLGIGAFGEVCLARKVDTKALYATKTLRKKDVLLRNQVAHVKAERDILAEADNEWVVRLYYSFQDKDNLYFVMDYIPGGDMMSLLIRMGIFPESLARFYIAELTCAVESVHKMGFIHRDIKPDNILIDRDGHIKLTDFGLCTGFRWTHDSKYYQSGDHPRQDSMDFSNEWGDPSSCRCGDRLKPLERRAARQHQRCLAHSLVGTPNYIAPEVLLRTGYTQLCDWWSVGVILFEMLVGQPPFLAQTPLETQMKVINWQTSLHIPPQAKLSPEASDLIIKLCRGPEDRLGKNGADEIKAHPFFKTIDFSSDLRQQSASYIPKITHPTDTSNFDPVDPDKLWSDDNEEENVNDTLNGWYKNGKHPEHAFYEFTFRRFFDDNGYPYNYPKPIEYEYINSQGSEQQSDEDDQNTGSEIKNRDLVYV
Sequence of NEK2 (human) (P51955 whole entry, looked up): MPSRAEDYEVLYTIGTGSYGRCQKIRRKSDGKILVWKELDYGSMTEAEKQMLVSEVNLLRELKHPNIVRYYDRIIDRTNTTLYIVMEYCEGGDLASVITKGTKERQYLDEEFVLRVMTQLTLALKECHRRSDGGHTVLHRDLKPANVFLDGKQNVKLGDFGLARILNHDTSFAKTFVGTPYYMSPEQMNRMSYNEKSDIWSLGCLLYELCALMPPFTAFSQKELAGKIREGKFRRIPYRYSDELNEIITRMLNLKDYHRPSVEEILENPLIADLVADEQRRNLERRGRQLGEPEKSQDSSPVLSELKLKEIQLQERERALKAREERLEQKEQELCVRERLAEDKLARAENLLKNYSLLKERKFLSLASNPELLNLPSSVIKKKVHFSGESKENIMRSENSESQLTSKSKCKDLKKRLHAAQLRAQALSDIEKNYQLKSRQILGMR
Sequence of EPHB2 (human) (P29323 whole entry, looked up): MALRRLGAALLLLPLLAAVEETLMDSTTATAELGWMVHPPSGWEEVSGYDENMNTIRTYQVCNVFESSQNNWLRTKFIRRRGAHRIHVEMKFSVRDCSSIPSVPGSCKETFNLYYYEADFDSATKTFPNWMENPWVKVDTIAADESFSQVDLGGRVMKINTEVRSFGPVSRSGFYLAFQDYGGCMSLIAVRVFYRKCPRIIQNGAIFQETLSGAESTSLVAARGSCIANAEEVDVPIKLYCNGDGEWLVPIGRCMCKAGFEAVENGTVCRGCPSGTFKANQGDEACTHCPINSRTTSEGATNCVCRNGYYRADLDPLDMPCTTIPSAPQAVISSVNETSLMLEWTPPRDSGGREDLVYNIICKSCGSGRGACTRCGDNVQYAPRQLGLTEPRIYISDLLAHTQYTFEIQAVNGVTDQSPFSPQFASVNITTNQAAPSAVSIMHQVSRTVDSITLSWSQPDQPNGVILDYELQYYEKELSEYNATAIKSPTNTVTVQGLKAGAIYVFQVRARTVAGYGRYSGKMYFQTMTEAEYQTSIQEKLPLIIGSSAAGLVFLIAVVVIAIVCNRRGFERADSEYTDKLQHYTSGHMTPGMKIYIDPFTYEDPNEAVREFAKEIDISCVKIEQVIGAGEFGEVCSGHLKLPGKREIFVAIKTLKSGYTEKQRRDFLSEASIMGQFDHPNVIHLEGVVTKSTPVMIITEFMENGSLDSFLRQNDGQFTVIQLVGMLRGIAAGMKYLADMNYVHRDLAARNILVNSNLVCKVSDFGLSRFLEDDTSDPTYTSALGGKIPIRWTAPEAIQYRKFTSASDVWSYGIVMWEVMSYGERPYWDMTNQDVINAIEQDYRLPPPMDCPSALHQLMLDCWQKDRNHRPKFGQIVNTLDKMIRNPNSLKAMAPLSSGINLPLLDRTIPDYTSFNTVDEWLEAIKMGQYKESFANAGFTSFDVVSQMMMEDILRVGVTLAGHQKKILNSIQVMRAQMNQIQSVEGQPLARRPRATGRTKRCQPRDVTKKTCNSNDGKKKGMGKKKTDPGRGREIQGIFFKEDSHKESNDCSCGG
Sequence of CHEK1 (human) (O14757 whole entry, looked up): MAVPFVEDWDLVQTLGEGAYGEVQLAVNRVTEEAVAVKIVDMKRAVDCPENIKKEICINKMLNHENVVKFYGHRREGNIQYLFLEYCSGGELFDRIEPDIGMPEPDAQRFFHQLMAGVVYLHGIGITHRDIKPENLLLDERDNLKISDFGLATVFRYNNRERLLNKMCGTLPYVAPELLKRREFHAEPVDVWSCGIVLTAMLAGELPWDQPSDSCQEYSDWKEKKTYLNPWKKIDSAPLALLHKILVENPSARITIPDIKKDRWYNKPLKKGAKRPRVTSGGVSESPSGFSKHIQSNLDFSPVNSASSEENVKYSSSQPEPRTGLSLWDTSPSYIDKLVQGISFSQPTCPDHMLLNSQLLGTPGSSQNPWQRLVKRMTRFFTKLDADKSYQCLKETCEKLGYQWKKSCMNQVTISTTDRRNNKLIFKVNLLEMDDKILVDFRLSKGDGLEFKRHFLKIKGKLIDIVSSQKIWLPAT
Sequence of CLK1 (human) (P49759 whole entry, looked up): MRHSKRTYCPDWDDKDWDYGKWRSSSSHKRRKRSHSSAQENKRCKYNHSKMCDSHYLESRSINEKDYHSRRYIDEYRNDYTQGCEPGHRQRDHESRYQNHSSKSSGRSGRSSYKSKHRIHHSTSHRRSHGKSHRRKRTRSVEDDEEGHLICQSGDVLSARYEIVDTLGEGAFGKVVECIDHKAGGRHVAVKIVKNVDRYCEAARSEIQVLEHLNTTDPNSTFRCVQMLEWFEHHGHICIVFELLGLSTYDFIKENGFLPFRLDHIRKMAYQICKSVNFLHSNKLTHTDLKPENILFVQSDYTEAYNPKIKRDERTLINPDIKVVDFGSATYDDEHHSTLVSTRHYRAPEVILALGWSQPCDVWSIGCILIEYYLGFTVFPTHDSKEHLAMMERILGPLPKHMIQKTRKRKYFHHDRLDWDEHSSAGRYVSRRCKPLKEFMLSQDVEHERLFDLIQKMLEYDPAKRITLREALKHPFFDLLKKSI

Row | SMILES | kinase still bound, per cent of control (EPHB3 (human)) [%] | kinase still bound, per cent of control (SRPK1 (human)) [%] | kinase still bound, per cent of control (AKT3 (human)) [%] | kinase still bound, per cent of control (CDK17 (human)) [%] | kinase still bound, per cent of control (FES (human)) [%] | kinase still bound, per cent of control (NEK1 (human)) [%] | kinase still bound, per cent of control (ANKK1 (human)) [%] | kinase still bound, per cent of control (CAMK2D (human)) [%] | kinase still bound, per cent of control (LATS2 (human)) [%] | kinase still bound, per cent of control (MAP3K11 (human)) [%] | kinase still bound, per cent of control (MAPK1 (human)) [%] | kinase still bound, per cent of control (PRKCE (human)) [%] | kinase still bound, per cent of control (CLK1 (human)) [%] | kinase still bound, per cent of control (MST1R (human)) [%] | kinase still bound, per cent of control (MARK1 (human)) [%] | kinase still bound, per cent of control [1] [%] | kinase still bound, per cent of control (SGK110 (human)) [%] | kinase still bound, per cent of control (EPHB2 (human)) [%] | kinase still bound, per cent of control (BMPR1B (human)) [%] | kinase still bound, per cent of control (STK16 (human)) [%] | also measured
1 | O=C(NOC[C@H](O)CO)c1ccc(F)c(F)c1Nc1ccc(I)cc1F | 89 | 100 | 89 | 95 | 100 | 98 | 64 | 100 | 74 | 100 | 100 | 100 | 95 | 78 | 100 | 84 | 100 | 73 | 81 | 99 | kinase still bound, per cent of control (NEK2 (human)): 70%; kinase still bound, per cent of control (PRKCD (human)): 100%; kinase still bound, per cent of control (CSNK1G1 (human)): 61%; kinase still bound, per cent of control (CAMKK2 (human)): 100%; kinase still bound, per cent of control (RPS6KA1 KD1 (human)): 100%; kinase still bound, per cent of control (PAK2 (human)): 93%; kinase still bound, per cent of control (STK17A (human)): 100%; kinase still bound, per cent of control (AAK1 (human)): 100%; kinase still bound, per cent of control (STK32C (human)): 100%; kinase still bound, per cent of control (LATS1 (human)): 100%; kinase still bound, per cent of control (PKN1 (human)): 100%; kinase still bound, per cent of control [2]: 100%; kinase still bound, per cent of control [3]: 100%; kinase still bound, per cent of control (FLT4 (human)): 94%; kinase still bound, per cent of control (CHEK1 (human)): 74%; kinase still bound, per cent of control (CDC2L2 (human)): 100%; kinase still bound, per cent of control (DMPK (human)): 90%; kinase still bound, per cent of control [4]: 100%; kinase still bound, per cent of control (STK17B (human)): 100%; kinase still bound, per cent of control (BLK (human)): 83%
2 | COc1cc(C(=O)NC2CCN(C)CC2)ccc1Nc1ncc2c(n1)N(C1CCCC1)CCC(=O)N2C(C)C | 100 | 0 | 100 | 100 | 100 | 100 | 100 | 100 | 100 | 100 | 100 | 100 | 100 | 100 | 100 | 100 | 100 | 100 | 100 | 100 | kinase still bound, per cent of control (NEK2 (human)): 100%; kinase still bound, per cent of control (PRKCD (human)): 0%; kinase still bound, per cent of control (CSNK1G1 (human)): 100%; kinase still bound, per cent of control (CAMKK2 (human)): 100%; kinase still bound, per cent of control (RPS6KA1 KD1 (human)): 100%; kinase still bound, per cent of control (PAK2 (human)): 100%; kinase still bound, per cent of control (STK17A (human)): 100%; kinase still bound, per cent of control (AAK1 (human)): 100%; kinase still bound, per cent of control (STK32C (human)): 100%; kinase still bound, per cent of control (LATS1 (human)): 100%; kinase still bound, per cent of control (PKN1 (human)): 100%; kinase still bound, per cent of control [2]: 100%; kinase still bound, per cent of control [3]: 100%; kinase still bound, per cent of control (FLT4 (human)): 0%; kinase still bound, per cent of control (CHEK1 (human)): 100%; kinase still bound, per cent of control (CDC2L2 (human)): 100%; kinase still bound, per cent of control (DMPK (human)): 100%; kinase still bound, per cent of control [4]: 100%; kinase still bound, per cent of control (STK17B (human)): 100%; kinase still bound, per cent of control (BLK (human)): 100%
3 | C=CC(=O)Nc1cc(NC(=O)c2ccc(C)c(NC(=O)c3ccno3)c2)cc(C(F)(F)F)c1 | 99 | 86 | 100 | 92 | 100 | 100 | 99 | 83 | 88 | 100 | 100 | 100 | 93 | 99 | 100 | 100 | 100 | 77 | 100 | 100 | kinase still bound, per cent of control (NEK2 (human)): 100%; kinase still bound, per cent of control (PRKCD (human)): 91%; kinase still bound, per cent of control (CSNK1G1 (human)): 100%; kinase still bound, per cent of control (CAMKK2 (human)): 69%; kinase still bound, per cent of control (RPS6KA1 KD1 (human)): 99%; kinase still bound, per cent of control (PAK2 (human)): 71%; kinase still bound, per cent of control (STK17A (human)): 100%; kinase still bound, per cent of control (AAK1 (human)): 77%; kinase still bound, per cent of control (STK32C (human)): 100%; kinase still bound, per cent of control (LATS1 (human)): 100%; kinase still bound, per cent of control (PKN1 (human)): 96%; kinase still bound, per cent of control [2]: 100%; kinase still bound, per cent of control [3]: 92%; kinase still bound, per cent of control (FLT4 (human)): 100%; kinase still bound, per cent of control (CHEK1 (human)): 96%; kinase still bound, per cent of control (CDC2L2 (human)): 94%; kinase still bound, per cent of control (DMPK (human)): 100%; kinase still bound, per cent of control [4]: 99%; kinase still bound, per cent of control (STK17B (human)): 89%; kinase still bound, per cent of control (BLK (human)): 97%

Source: the kinase profiling compilation of Christmann-Franck et al. (2016)
